# Several values for one entry are separate records, joined by “and”; a condition that tells them apart may be missing. Equal values may be shown once. Residues, ends and D or L forms follow the SMILES beside them.
# Biological target: Nociceptin receptor (Mus musculus, UniProt P35377)
# Sequence (P35377 whole entry): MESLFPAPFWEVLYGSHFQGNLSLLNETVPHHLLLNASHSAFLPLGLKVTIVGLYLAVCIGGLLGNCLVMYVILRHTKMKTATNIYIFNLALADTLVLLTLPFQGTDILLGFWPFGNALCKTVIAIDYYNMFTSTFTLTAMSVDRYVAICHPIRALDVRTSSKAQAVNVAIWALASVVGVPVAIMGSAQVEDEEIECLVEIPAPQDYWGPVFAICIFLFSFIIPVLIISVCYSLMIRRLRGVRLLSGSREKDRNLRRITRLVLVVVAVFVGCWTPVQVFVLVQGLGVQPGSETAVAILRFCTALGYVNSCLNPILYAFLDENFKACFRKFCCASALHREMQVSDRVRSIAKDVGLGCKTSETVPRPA
row,SMILES,Ki
1,CSCC[C@H](NC(=O)[C@H](Cc1ccccc1)NC(=O)CNC(=O)CNC(=O)[C@@H](N)Cc1ccc(O)cc1)C(=O)O [2-[(S)-2-(2-{2-[(S)-2-Amino-3-(4-hydroxy-phenyl)-propionylamino]-acetylamino}-acetylamino)-1-oxo-3-phenyl-propylamino]-4-methylsulfanyl-butyric acid],1000 nM
2,Oc1ccc2c3c1OC1c4[nH]c5c(c4CC4(O)CN(CCC314)C(C1CC1)C2)CC1(O)CN2CCC13c1c(ccc(O)c1OC53)CC2C1CC1 (stereo not given) [CAS_105618-26-6],898 nM and 7500 nM
3,CC(C)C[C@H](NC(=O)[C@H](Cc1ccccc1)NC(=O)CNC(=O)CNC(=O)[C@@H](N)Cc1ccc(O)cc1)C(=O)N[C@@H](CCCNC(=N)N)C(=O)N[C@@H](CCCCN)C(=O)N[C@@H](Cc1ccc(O)cc1)C(=O)N1CCC[C@H]1C(=O)N[C@@H](CCCCN)C(=O)O [CB0427223] (H-YGGFLRKYPK-OH),192 nM
4,CC(C)C[C@H](NC(=O)[C@H](Cc1ccccc1)NC(=O)CNC(=O)CNC(=O)[C@@H](N)Cc1ccc(O)cc1)C(=O)N[C@@H](CCCN=C(N)N)C(=O)N[C@@H](CCCN=C(N)N)C(=O)N[C@@H](CCC(N)=O)C(=O)N[C@@H](Cc1ccccc1)C(=O)N[C@@H](CCCCN)C(=O)N[C@H](C(=O)N[C@H](C(=O)N[C@H](C(=O)O)[C@@H](C)O)C(C)C)C(C)C [Dynorphin B (1-13)],33.9 nM and 247 nM
5,C[C@H](NC(=O)CNC(=O)[C@@H](NC(=O)[C@H](Cc1ccccc1)NC(=O)CNC(=O)CNC(=O)[C@@H](N)Cc1ccccc1)[C@@H](C)O)C(=O)O [OFQ/N (1-7)] (H-FGGFTGA-OH),440 nM and 360 nM

# Reference: BindingDB's records for PubMed 11546835 (Mcgill University, 2001)
